From patent US12491180B2, “Application of compound in treating pneumonia” (SHENZHEN OPTIMUM BIOLOGICAL TECHNOLOGY CO., LTD., priority 2019, dated 2025)
Converted amounts (≈) assume the structure as drawn.

Legend:
Klebsiella oxytoca 12391 = assay: MIC, solid dilution method; assay type: cell-based; settings: K. ox 12391, CRE clinical isolate, MHA agar, 37° C., 16-20 hours, read-out: MIC
Procedure: (§1) The above-mentioned glycerol-preserved strains were taken out from the −80° C. refrigerator, streaked and inoculated on MHA plates, labeled, and cultured overnight in a 37° C. incubator.
(§2) The inoculum was prepared directly from bacterial suspension, and several recovered colonies were picked and directly prepared into a bacterial suspension with a turbidity of No. 0.5 McFarland units in normal saline, and a 10-fold dilution was made during inoculation.
(§3) 6 bottles of MHA culture medium 500 mL/bottle were prepared, and the pH was adjusted to 7.2-7.4, sterilized at 121° C. for 15 min, and the medium was placed in a 55° C. water bath to keep warm.
(§4) Sterile blank petri dishes were taken, and marked with each FL drug/concentration according to 2-fold dilution, and 10 concentrations of each drug starting from 8 μg/mL were tested.
(§5) […]; 20 mL was aspirated and added to a petri dish consistent with the mark, and then 20 mL of MHA culture medium was added to the rest of the drug-containing culture medium, mixed evenly, that is, the 2-fold diluted drug-containing culture medium; 20 mL was aspirated and added to the petri dish consistent with the mark, and then diluted to the 10th concentration and the […] respectively by repeating the above-mentioned steps, and then poured into the petri dish.
(§6) 4 bacterial control petri dishes without drug were prepared at the same time as a control.
(§7) The positioning needle and the inoculation needle were installed according to the order of placement of the colony on the inoculation plate. After inoculation, a bacterial solution circle was formed on the petri dish. After the bacterial solution was absorbed by the agar, the petri dish was placed in an incubator at 37° C. for overnight incubation (16-20 hours), and then taken out.
(§8) The minimum inhibitory concentrations of the compounds against the CRE and CSE strains were determined by the solid dilution method, and the results are shown in Tables 3 and 4.

Klebsiella oxytoca 14151 = assay: MIC, solid dilution method; assay type: cell-based; settings: K. ox 14151, CRE clinical isolate, MHA agar, 37° C., 16-20 hours, read-out: MIC
Procedure: as §1, §2, §3, §4, §5, §6, §7, §8

Escherichia coli 14828 = assay: MIC, solid dilution method; assay type: cell-based; settings: E. coli 14828, CRE clinical isolate, MHA agar, 37° C., 16-20 hours, read-out: MIC
Procedure: as §1, §2, §3, §4, §5, §6, §7, §8

Klebsiella oxytoca 14153 = assay: MIC, solid dilution method; assay type: cell-based; settings: K. ox 14153, CRE clinical isolate, MHA agar, 37° C., 16-20 hours, read-out: MIC
Procedure: as §1, §2, §3, §4, §5, §6, §7, §8

Escherichia coli 13897 = assay: MIC, solid dilution method; assay type: cell-based; settings: E. coli 13897, CRE clinical isolate, MHA agar, 37° C., 16-20 hours, read-out: MIC
Procedure: as §1, §2, §3, §4, §5, §6, §7, §8

Escherichia coli 11119 = assay: MIC, solid dilution method; assay type: cell-based; settings: E. coli 11119, CRE clinical isolate, MHA agar, 37° C., 16-20 hours, read-out: MIC
Procedure: as §1, §2, §3, §4, §5, §6, §7, §8

Klebsiella oxytoca 6777 = assay: MIC, solid dilution method; assay type: cell-based; settings: K. ox 6777, CRE clinical isolate, MHA agar, 37° C., 16-20 hours, read-out: MIC
Procedure: as §1, §2, §3, §4, §5, §6, §7, §8

E. coli 11256 = assay: MIC, solid dilution method; assay type: cell-based; settings: Escherichia coli; E. coli 11256; MHA agar, 37° C., 16-20 hours; read-out: MIC
Procedure: as §1, §2, §3, §4, §5, §6, §7, §8

[1] = system: Citrobacter freundii 7646; assay: MIC, solid dilution method; assay type: cell-based; settings: C.f 7646, CSE clinical isolate, MHA agar, 37° C., 16-20 hours, read-out: MIC
Procedure: (§9) CRE Citrobacter freundii 9434, 9484 and CSE Citrobacter freundii 7646, a total of 3 strains;
as §1, §2, §3, §4, §5, §6, §7, §8

[2] = system: Citrobacter freundii 9434; assay: MIC, solid dilution method; assay type: cell-based; settings: C.f 9434, CRE clinical isolate, MHA agar, 37° C., 16-20 hours, read-out: MIC
Procedure: as §9, §1, §2, §3, §4, §5, §6, §7, §8

[3] = system: Citrobacter freundii 9484; assay: MIC, solid dilution method; assay type: cell-based; settings: C.f 9484, CRE clinical isolate, MHA agar, 37° C., 16-20 hours, read-out: MIC
Procedure: as §9, §1, §2, §3, §4, §5, §6, §7, §8

[4] = system: Enterobacter aerogenes 8193; assay: MIC, solid dilution method; assay type: cell-based; settings: Klebsiella aerogenes; E. ae 8193, CRE clinical isolate; MHA agar, 37° C., 16-20 hours; read-out: MIC
Procedure: CRE Enterobacter aerogenes 8193, a total of 1 strain;
as §1, §2, §3, §4, §5, §6, §7, §8

E. ae 14186 = assay: MIC, solid dilution method; assay type: cell-based, Enterobacter aerogenes; settings: Klebsiella aerogenes; E. ae 14186; MHA agar, 37° C., 16-20 hours; read-out: MIC
Procedure: as §1, §2, §3, §4, §5, §6, §7, §8

16 clinical CRE strains = assay: MIC50, MIC90 and MIC range against 16 clinical CRE strains; assay type: cell-based; settings: 16 clinical CRE strains; for MIC50: read-out: MIC50; for MIC90: read-out: MIC90
Procedure: as §1, §2, §3, §4, §5, §6, §7, §8

[5] = system: Acinetobacter baumannii 6383; assay: MIC, solid dilution method; assay type: cell-based; settings: A.B 6383, CRE clinical isolate, MHA agar, 37° C., 16-20 hours, read-out: MIC
Procedure: (§10) CRE Acinetobacter baumannii 8476, 6383, a total of 2 strains; CRE Serratia marcescens 14541, a total of 1 strain; all collected in the Department of Infectious Diseases, West China Hospital, Chengdu, Sichuan Province, and kept in our laboratory.
as §1, §2, §3, §4, §5, §6, §7, §8

[6] = system: Serratia marcescens 14541; assay: MIC, solid dilution method; assay type: cell-based; settings: Sma 14541, CRE clinical isolate, MHA agar, 37° C., 16-20 hours, read-out: MIC
Procedure: as §10, §1, §2, §3, §4, §5, §6, §7, §8

[7] = system: Acinetobacter baumannii 8476; assay: MIC, solid dilution method; assay type: cell-based; settings: A.B 8476, CRE clinical isolate, MHA agar, 37° C., 16-20 hours, read-out: MIC
Procedure: as §10, §1, §2, §3, §4, §5, §6, §7, §8

[8] = system: Enterobacter cloacae 11090; assay: MIC, solid dilution method; assay type: cell-based; settings: E. cl 11090, CRE clinical isolate, MHA agar, 37° C., 16-20 hours, read-out: MIC
Procedure: as §1, §2, §4, §6, §7

[9] = system: Enterobacter cloacae 14653; assay: MIC, solid dilution method; assay type: cell-based; settings: E. cl 14653, CRE clinical isolate, MHA agar, 37° C., 16-20 hours, read-out: MIC
Procedure: as §1, §2, §4, §6, §7

[10] = system: Enterobacter cloacae 11699; assay: MIC, solid dilution method; assay type: cell-based; settings: E. cl 11699, CSE clinical isolate, MHA agar, 37° C., 16-20 hours, read-out: MIC
Procedure: as §1, §2, §4, §6, §7

Structure (SMILES) | MIC (Klebsiella oxytoca 12391) [µg/mL] | MIC (Klebsiella oxytoca 14151) [µg/mL] | MIC (Escherichia coli 14828) [µg/mL] | MIC (Klebsiella oxytoca 14153) [µg/mL] | MIC (Escherichia coli 13897) [µg/mL] | MIC (Escherichia coli 11119) [µg/mL] | MIC (Klebsiella oxytoca 6777) [µg/mL] | MIC (E. coli 11256) [µg/mL] | MIC [1] [µg/mL] | MIC [2] [µg/mL] | MIC [3] [µg/mL] | MIC [4] [µg/mL] | MIC (E. ae 14186) [µg/mL] | MIC50 (16 clinical CRE strains) [µg/mL] | MIC90 (16 clinical CRE strains) [µg/mL] | MIC [5] [µg/mL] | MIC [6] [µg/mL] | MIC [7] [µg/mL] | MIC [8] [µg/mL] | MIC [9] [µg/mL] | other results
CC1(C)[C@H](NC(=O)/C(=N\O[C@@H](COc2ccc3c(c2)CN(C(=N)NOCCN)C3)C(=O)O)c2csc(N)n2)C(=O)N1OS(=O)(=O)O [Compound 43] | 1 (≈ 1.46 µM) | 1 (≈ 1.46 µM) | 0.5 (≈ 0.729 µM) | 1 (≈ 1.46 µM) | 0.25 (≈ 0.365 µM) | > 8 | 1 (≈ 1.46 µM) | 0.125 (≈ 0.182 µM) | 0.5 (≈ 0.729 µM) | 0.5 (≈ 0.729 µM) | 0.125 (≈ 0.182 µM) | 2 (≈ 2.92 µM) | 1 (≈ 1.46 µM) | 2 (≈ 2.92 µM) | > 8 | > 8 | > 8 | 8 (≈ 11.7 µM) | 2 (≈ 2.92 µM) | 1 (≈ 1.46 µM) | MIC [10]: 0.125 µg/mL (≈ 0.182 µM)
CC1(C)[C@H](NC(=O)/C(=N\O[C@@H](COc2ccc3c(c2)CN(C(=N)NCCN)C3)C(=O)O)c2csc(N)n2)C(=O)N1OS(=O)(=O)O [Compound 44] | 0.25 (≈ 0.373 µM) | 0.25 (≈ 0.373 µM) | 0.125 (≈ 0.187 µM) | 0.25 (≈ 0.373 µM) | 0.125 (≈ 0.187 µM) | 4 (≈ 5.97 µM) | 0.25 (≈ 0.373 µM) | 0.03 (≈ 0.0448 µM) | 0.125 (≈ 0.187 µM) | 0.125 (≈ 0.187 µM) | 0.03 (≈ 0.0448 µM) | 0.5 (≈ 0.747 µM) | 0.25 (≈ 0.373 µM) | 0.5 (≈ 0.747 µM) | 8 (≈ 11.9 µM) | 2 (≈ 2.99 µM) | > 8 | 1 (≈ 1.49 µM) | 0.5 (≈ 0.747 µM) | 0.25 (≈ 0.373 µM) | MIC [10]: 0.03 µg/mL (≈ 0.0448 µM)
CC1(C)[C@H](NC(=O)/C(=N\O[C@@H](COc2ccc3c(c2)CN(/C(=N\[C@@H]2CCCNC2)N[C@@H]2CCCNC2)C3)C(=O)O)c2csc(N)n2)C(=O)N1OS(=O)(=O)O [Compound 46] | 0.25 (≈ 0.315 µM) | 0.25 (≈ 0.315 µM) | 0.125 (≈ 0.158 µM) | 0.25 (≈ 0.315 µM) | 0.125 (≈ 0.158 µM) | 4 (≈ 5.04 µM) | 0.25 (≈ 0.315 µM) | 0.03 (≈ 0.0378 µM) | 0.125 (≈ 0.158 µM) | 0.125 (≈ 0.158 µM) | 0.06 (≈ 0.0757 µM) | 1 (≈ 1.26 µM) | 0.25 (≈ 0.315 µM) | 1 (≈ 1.26 µM) | 8 (≈ 10.1 µM) | 4 (≈ 5.04 µM) | > 8 | 4 (≈ 5.04 µM) | 1 (≈ 1.26 µM) | 0.5 (≈ 0.631 µM) | MIC [10]: 0.125 µg/mL (≈ 0.158 µM)
